Assay results reported in patent US9980943B2, “Methods of treating muscular dystrophy” (BOARD OF REGENTS OF THE NEVADA SYSTEM OF HIGHER EDUCATION, …, priority 2013, dated 2018).

What was measured:
Format in all cases: cell-based, mouse
[1] = system: α7 integrin (LacZ reporter in α7βgal+/− myoblasts); experiment: Myoblast α7+/LacZ integrin FDG assay (Burkin assay in myoblasts, 96-well); settings: for Burkin Assay in Myoblasts, signal relative to DMSO: α7+/LacZ myoblasts; for Burkin Assay in Myoblasts, signal relative to DMSO / Burkin Assay in Myoblasts, value relative to DMSO: 96-well; for Burkin Assay in Myoblasts, value relative to DMSO: SU9516 analogs, N=3-6
[2] = system: α7 integrin (LacZ reporter in α7+/LacZ myotubes); experiment: Myotube α7 integrin FDG assay (Burkin assay in myotubes, 96-well); settings: for Burkin Assay in Myotubes, value relative to DMSO: SU9516 analogs, 96-well, N=3-6
[3] = system: β-galactosidase in CMV-LacZ C2C12 myoblasts; experiment: CMV-LacZ secondary screen in C2C12 myoblasts (β-Gal stabilizing assay); settings: for CMV-LACZ in Myoblasts, value relative to DMSO: SU9516 analogs, C2C12 CMV-LacZ, N=2; for CMV-LACZ in Myoblasts (β-galactosidase activity relative to DMSO): CMV-LacZ C2C12 myoblasts
Outline: (§1)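 β-Gal level was the read-out, measured in a clonal C2C12 line expressing LacZ from a CMV promoter. Dose-response curves used six concentrations, 0.5 μM up to 40 μM, with duplicate points.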

[4] = system: β-galactosidase in CMV-LacZ C2C12 myotubes; experiment: CMV-LacZ secondary screen in C2C12 myotubes (β-Gal stabilizing assay); settings: for CMV-LACZ in Myotubes, value relative to DMSO: SU9516 analogs, C2C12 CMV-LacZ, N=2; for CMV-LACZ in Myotubes, signal relative to DMSO: C2C12 CMV-LacZ myotubes, fold relative to DMSO
Outline: as §1

[5] = Mus musculus, Myoblast, 48 h, read-out: Burkin Assay in Myoblasts, value relative to DMSO

O=C1Nc2ccccc2/C1=C/c1ccnc2ccccc12 [MLS001182278-01]
fold induction at 0.5 µM [1, 5]: 1.21 | fold induction at 1 µM [1, 5]: 1.07 | fold induction at 5 µM [1, 5]: 1.06 | fold induction at 10 µM [1, 5]: 1.17 | fold induction at 20 µM [1, 5]: 0.766 | fold induction at 40 µM [1, 5]: 0.842 | Burkin Assay in Myotubes, value relative to DMSO ([2]; 0.5 uM): 1.1969 | Burkin Assay in Myotubes, value relative to DMSO ([2]; 1 uM): 1.118 | Burkin Assay in Myotubes, value relative to DMSO ([2]; 5 uM): 1.402 | Burkin Assay in Myotubes, value relative to DMSO ([2]; 10 uM): 1.412 | Burkin Assay in Myotubes, value relative to DMSO ([2]; 20 uM): 0.5653 | Burkin Assay in Myotubes, value relative to DMSO ([2]; 40 uM): 0.6488 | CMV-LACZ in Myoblasts, value relative to DMSO ([3]; 0.5 uM): 0.7466 | CMV-LACZ in Myoblasts, value relative to DMSO ([3]; 1 uM): 0.9491 | CMV-LACZ in Myoblasts, value relative to DMSO ([3]; 5 uM): 0.9823 | CMV-LACZ in Myoblasts, value relative to DMSO ([3]; 10 uM): 0.9778 | CMV-LACZ in Myoblasts, value relative to DMSO ([3]; 20 uM): 1.0519 | CMV-LACZ in Myoblasts, value relative to DMSO ([3]; 40 uM): 0.5959 | CMV-LACZ in Myotubes, value relative to DMSO ([4]; 0.5 uM): 0.9674 | CMV-LACZ in Myotubes, value relative to DMSO ([4]; 1 uM): 1.0126 | CMV-LACZ in Myotubes, value relative to DMSO ([4]; 5 uM): 1.0327 | CMV-LACZ in Myotubes, value relative to DMSO ([4]; 10 uM): 1.0297 | CMV-LACZ in Myotubes, value relative to DMSO ([4]; 20 uM): 1.0224 | CMV-LACZ in Myotubes, value relative to DMSO ([4]; 40 uM): 1.1212

CN(CCC1CCCCO1)C(=O)CCc1nnc(CCCCc2ccccc2)o1 (stereo not drawn) [MLS000735021-01]
Burkin Assay in Myoblasts, signal relative to DMSO ([1]; 0.5 uM): 0.9402 | Burkin Assay in Myoblasts, signal relative to DMSO ([1]; 1 uM): 0.9246 | Burkin Assay in Myoblasts, signal relative to DMSO ([1]; 5 uM): 0.9982 | Burkin Assay in Myoblasts, signal relative to DMSO ([1]; 10 uM): 0.9765 | Burkin Assay in Myoblasts, signal relative to DMSO ([1]; 20 uM): 1.025 | Burkin Assay in Myoblasts, signal relative to DMSO ([1]; 40 uM): 0.9941 | Burkin Assay in Myotubes, α7 integrin LacZ reporter signal relative to DMSO ([2]; 0.5 uM): 1.013 | Burkin Assay in Myotubes, α7 integrin LacZ reporter signal relative to DMSO ([2]; 1 uM): 1.009 | Burkin Assay in Myotubes, α7 integrin LacZ reporter signal relative to DMSO ([2]; 5 uM): 0.9137 | Burkin Assay in Myotubes, α7 integrin LacZ reporter signal relative to DMSO ([2]; 10 uM): 1.006 | Burkin Assay in Myotubes, α7 integrin LacZ reporter signal relative to DMSO ([2]; 20 uM): 0.8444 | Burkin Assay in Myotubes, α7 integrin LacZ reporter signal relative to DMSO ([2]; 40 uM): 0.8523 | CMV-LACZ in Myoblasts (β-galactosidase activity relative to DMSO) ([3]; 0.5 uM): 0.8683 | CMV-LACZ in Myoblasts (β-galactosidase activity relative to DMSO) ([3]; 1 uM): 1.1646 | CMV-LACZ in Myoblasts (β-galactosidase activity relative to DMSO) ([3]; 5 uM): 0.9756 | CMV-LACZ in Myoblasts (β-galactosidase activity relative to DMSO) ([3]; 10 uM): 0.9907 | CMV-LACZ in Myoblasts (β-galactosidase activity relative to DMSO) ([3]; 20 uM): 1.2130 | CMV-LACZ in Myoblasts (β-galactosidase activity relative to DMSO) ([3]; 40 uM): 0.9767 | CMV-LACZ in Myotubes, signal relative to DMSO ([4]; 0.5 uM): 1.0105 | CMV-LACZ in Myotubes, signal relative to DMSO ([4]; 1 uM): 1.0221 | CMV-LACZ in Myotubes, signal relative to DMSO ([4]; 5 uM): 0.9548 | CMV-LACZ in Myotubes, signal relative to DMSO ([4]; 10 uM): 0.9616 | CMV-LACZ in Myotubes, signal relative to DMSO ([4]; 20 uM): 1.0378 | CMV-LACZ in Myotubes, signal relative to DMSO ([4]; 40 uM): 1.0778

CC(=O)Nc1ccc(-n2c(C)nc(=O)c(-c3ccccc3)c2C)cc1 [MLS000078709-01]
Burkin Assay in Myoblasts, signal relative to DMSO ([1]; 0.5 uM): 1.063 | Burkin Assay in Myoblasts, signal relative to DMSO ([1]; 1 uM): 0.996 | Burkin Assay in Myoblasts, signal relative to DMSO ([1]; 5 uM): 0.8157 | Burkin Assay in Myoblasts, signal relative to DMSO ([1]; 10 uM): 0.8052 | Burkin Assay in Myoblasts, signal relative to DMSO ([1]; 20 uM): 0.5171 | Burkin Assay in Myoblasts, signal relative to DMSO ([1]; 40 uM): 0.2616 | Burkin Assay in Myotubes, α7 integrin LacZ reporter signal relative to DMSO ([2]; 0.5 uM): 0.8374 | Burkin Assay in Myotubes, α7 integrin LacZ reporter signal relative to DMSO ([2]; 1 uM): 0.8236 | Burkin Assay in Myotubes, α7 integrin LacZ reporter signal relative to DMSO ([2]; 5 uM): 0.9535 | Burkin Assay in Myotubes, α7 integrin LacZ reporter signal relative to DMSO ([2]; 10 uM): 0.9899 | Burkin Assay in Myotubes, α7 integrin LacZ reporter signal relative to DMSO ([2]; 20 uM): 0.6311 | Burkin Assay in Myotubes, α7 integrin LacZ reporter signal relative to DMSO ([2]; 40 uM): 0.4894 | CMV-LACZ in Myoblasts (β-galactosidase activity relative to DMSO) ([3]; 0.5 uM): 0.8167 | CMV-LACZ in Myoblasts (β-galactosidase activity relative to DMSO) ([3]; 1 uM): 0.7008 | CMV-LACZ in Myoblasts (β-galactosidase activity relative to DMSO) ([3]; 5 uM): 0.9270 | CMV-LACZ in Myoblasts (β-galactosidase activity relative to DMSO) ([3]; 10 uM): 1.0163 | CMV-LACZ in Myoblasts (β-galactosidase activity relative to DMSO) ([3]; 20 uM): 0.6919 | CMV-LACZ in Myoblasts (β-galactosidase activity relative to DMSO) ([3]; 40 uM): 0.4830 | CMV-LACZ in Myotubes, signal relative to DMSO ([4]; 0.5 uM): 1.0133 | CMV-LACZ in Myotubes, signal relative to DMSO ([4]; 1 uM): 0.9257 | CMV-LACZ in Myotubes, signal relative to DMSO ([4]; 5 uM): 0.9348 | CMV-LACZ in Myotubes, signal relative to DMSO ([4]; 10 uM): 0.8743 | CMV-LACZ in Myotubes, signal relative to DMSO ([4]; 20 uM): 1.0853 | CMV-LACZ in Myotubes, signal relative to DMSO ([4]; 40 uM): 1.7737

CCCCN(CC)Cc1ccc(CNC(=S)Nc2ccccc2F)o1 [MLS000689562-01]
Burkin Assay in Myoblasts, signal relative to DMSO ([1]; 0.5 uM): 1.074 | Burkin Assay in Myoblasts, signal relative to DMSO ([1]; 1 uM): 1.014 | Burkin Assay in Myoblasts, signal relative to DMSO ([1]; 5 uM): 1.013 | Burkin Assay in Myoblasts, signal relative to DMSO ([1]; 10 uM): 1.224 | Burkin Assay in Myoblasts, signal relative to DMSO ([1]; 20 uM): 0.9537 | Burkin Assay in Myoblasts, signal relative to DMSO ([1]; 40 uM): 0.8817 | Burkin Assay in Myotubes, α7 integrin LacZ reporter signal relative to DMSO ([2]; 0.5 uM): 1.081 | Burkin Assay in Myotubes, α7 integrin LacZ reporter signal relative to DMSO ([2]; 1 uM): 1.035 | Burkin Assay in Myotubes, α7 integrin LacZ reporter signal relative to DMSO ([2]; 5 uM): 0.9788 | Burkin Assay in Myotubes, α7 integrin LacZ reporter signal relative to DMSO ([2]; 10 uM): 1.0159 | Burkin Assay in Myotubes, α7 integrin LacZ reporter signal relative to DMSO ([2]; 20 uM): 0.7236 | Burkin Assay in Myotubes, α7 integrin LacZ reporter signal relative to DMSO ([2]; 40 uM): 0.8547 | CMV-LACZ in Myoblasts (β-galactosidase activity relative to DMSO) ([3]; 0.5 uM): 0.8453 | CMV-LACZ in Myoblasts (β-galactosidase activity relative to DMSO) ([3]; 1 uM): 0.7409 | CMV-LACZ in Myoblasts (β-galactosidase activity relative to DMSO) ([3]; 5 uM): 0.8060 | CMV-LACZ in Myoblasts (β-galactosidase activity relative to DMSO) ([3]; 10 uM): 1.0858 | CMV-LACZ in Myoblasts (β-galactosidase activity relative to DMSO) ([3]; 20 uM): 0.9919 | CMV-LACZ in Myoblasts (β-galactosidase activity relative to DMSO) ([3]; 40 uM): 1.0619 | CMV-LACZ in Myotubes, signal relative to DMSO ([4]; 0.5 uM): 0.9474 | CMV-LACZ in Myotubes, signal relative to DMSO ([4]; 1 uM): 0.8652 | CMV-LACZ in Myotubes, signal relative to DMSO ([4]; 5 uM): 1.0300 | CMV-LACZ in Myotubes, signal relative to DMSO ([4]; 10 uM): 0.8105 | CMV-LACZ in Myotubes, signal relative to DMSO ([4]; 20 uM): 0.9824 | CMV-LACZ in Myotubes, signal relative to DMSO ([4]; 40 uM): 0.9788

O=Nc1c(-c2c(O)[nH]c3ccccc23)[nH]c2ccccc12 [NCGC00015545-07]
Burkin Assay in Myoblasts, value relative to DMSO ([1]; 0.5 uM): 1.073 | Burkin Assay in Myoblasts, value relative to DMSO ([1]; 1 uM): 1.12 | Burkin Assay in Myoblasts, value relative to DMSO ([1]; 5 uM): 0.8463 | Burkin Assay in Myoblasts, value relative to DMSO ([1]; 10 uM): 0.568 | Burkin Assay in Myoblasts, value relative to DMSO ([1]; 20 uM): 0.3068 | Burkin Assay in Myoblasts, value relative to DMSO ([1]; 40 uM): 0.242 | Burkin Assay in Myotubes, value relative to DMSO ([2]; 0.5 uM): 1.126 | Burkin Assay in Myotubes, value relative to DMSO ([2]; 1 uM): 1.08 | Burkin Assay in Myotubes, value relative to DMSO ([2]; 5 uM): 0.8721 | Burkin Assay in Myotubes, value relative to DMSO ([2]; 10 uM): 0.7457 | Burkin Assay in Myotubes, value relative to DMSO ([2]; 20 uM): 0.6654 | Burkin Assay in Myotubes, value relative to DMSO ([2]; 40 uM): 0.4975 | CMV-LACZ in Myoblasts, value relative to DMSO ([3]; 0.5 uM): 1.2967 | CMV-LACZ in Myoblasts, value relative to DMSO ([3]; 1 uM): 1.1950 | CMV-LACZ in Myoblasts, value relative to DMSO ([3]; 5 uM): 0.7896 | CMV-LACZ in Myoblasts, value relative to DMSO ([3]; 10 uM): 0.8603 | CMV-LACZ in Myoblasts, value relative to DMSO ([3]; 20 uM): 0.5257 | CMV-LACZ in Myoblasts, value relative to DMSO ([3]; 40 uM): 0.3383 | CMV-LACZ in Myotubes, value relative to DMSO ([4]; 0.5 uM): 1.0736 | CMV-LACZ in Myotubes, value relative to DMSO ([4]; 1 uM): 1.1036 | CMV-LACZ in Myotubes, value relative to DMSO ([4]; 5 uM): 0.9434 | CMV-LACZ in Myotubes, value relative to DMSO ([4]; 10 uM): 0.8393 | CMV-LACZ in Myotubes, value relative to DMSO ([4]; 20 uM): 0.7010 | CMV-LACZ in Myotubes, value relative to DMSO ([4]; 40 uM): 0.5470
